Where two headings read alike, the source gives them in different places.
Legend:
SaPDF [1] = target: T1, SaPDF (Streptococcus agalactiae serotype III, UniProt Q8E378, S2A); test: biochemical; settings: SaPDF KI*app, PDFI pre-incubated with enzyme 10 min at 37 °C, started by 2 mM Fo-Met-Ala-Ser; 40 nM SaPDF
T1 construct: the recombinant protein contains all residues of the 204 amino acids mature protein; made in house; host or cells: E. coli Rosetta 2(DE3)pLysS

AtPDF1B [2] = target: T2, AtPDF1B (Arabidopsis thaliana, UniProt Q9FUZ2); test: PDF inhibition, formate dehydrogenase-coupled spectrophotometric assay (AtPDF1B); assay type: biochemical; settings: no pre-incubation, assay initiated by addition of enzyme; 100 nM AtPDF1B; 37 °C
T2 construct: made in house
T2 sequence (Q9FUZ2 83-273): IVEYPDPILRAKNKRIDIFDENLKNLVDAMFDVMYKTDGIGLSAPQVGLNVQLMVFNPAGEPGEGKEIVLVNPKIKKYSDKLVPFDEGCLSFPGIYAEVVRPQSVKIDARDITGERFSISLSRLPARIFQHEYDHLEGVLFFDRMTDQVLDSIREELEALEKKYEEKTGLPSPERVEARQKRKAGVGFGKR

S. aureus SA113 = test: MIC, S. aureus SA113; assay type: cell-based; settings: Staphylococcus aureus
Text: (§1) Two E. coli strains, one B. subtilis strain, one S. aureus strain, one E. faecalis strain, one S. agalactiae strain and three Enterobacter aerogenes strains previously described were used. Briefly, AG100 was an E. coli wild type strain and AG100A its acrAB^- derivative. EA289 was a Kan^s derivative of an E. aerogenes multi-drug resistant (MDR) clinical isolate overexpressing AcrAB-TolC efflux pumps, and EA294 and EA298 its acrAB^- and tolC^- derivatives respectively. Strains were routinely grown at 37 °C on Luria-Bertani (LB) agar or in Mueller-Hinton II broth (MH), supplemented with kanamycine (50 μg.mL^−1) for AG100A, EA294 and EA298.
(§2) MIC values of antibiotics were determined by the microdilution method in liquid MH media in microplates in the absence or presence of chemosensitizers/modulators (e.g. PMBN, PAβN), as previously described. Permeabilization, blocking of efflux pumps, and isolates with different levels of porin or efflux expression were used to assess the involvement of the membrane barrier in antibiotic activity.
(§3) Susceptibilities were determined in 96-wells microplates with an inoculum of 2 × 10^5 cfu in 200 μL of MH broth containing two-fold serial dilutions of each antibiotics or compounds. Molecules were tested alone or in combination with other molecules in equimolar ratio. MICs were realized in the absence and in the presence of a membrane permeabilizer, the polymyxine B nonapeptide (PMBN) used at 51.2 mg/L (1/5 or 1/10 of its direct MIC previously determined). Actinonin and ciprofloxacin were used as internal antibiotic reference. […] Each test was systematically performed in triplicate. The average of three independent assays is presented in μg/mL in the respective tables.

EcPDF = target: T3, EcPDF (Escherichia coli, UniProt P0A6K3); test: PDF inhibition, formate dehydrogenase-coupled spectrophotometric assay (EcPDF); assay type: biochemical; settings: for Ki: 10 nM EcPDF; for EcPDF KI/KI*app: enhancement potency (slow tight-binding)
T3 construct: made in house
Protocol: (§4) The formate released by the deformylation reaction is used by FDH to convert NAD in NADH, the production of which being measured over time at 340 nm and controlled temperature (37 °C). The 200 μL reaction mixture contained 50 mM HEPES-NaOH pH7.5, 12 mM NAD^+, 4.5 U/mL FDH, 1 mM NiCl2 and PDF enzyme (either 40 nM SaPDF or 10 nM EcPDF or 100 nM AtPDF1B) previously diluted in presence of 0.1 mg/mL BSA. The reaction was started by addition of 1–6 mM Fo-Met-Ala-Ser. Kinetics parameters (kcat, Km) were derived from iterative non-linear least square fits using the Michaelis-menten equation based on the experimental data (Sigma-Plot, Kinetics module).
(§5) 1/KI*app is the slope of the v0/vi curve in function of compound concentration, where v0 and vi are the initial reaction rates in absence and presence of compound, respectively.
(§6) Determination of KI values was performed with a slightly modified protocol: reaction was started by addition of enzyme instead of Fo-Met-Ala-Ser, the latter being directly added to the mixture containing increasing concentrations of each compound. No pre-incubation of enzyme in presence of compound was done. 1/KI is the slope of the v0/vi curve in function of compound concentration, where v0 and vi are the initial reaction rates in absence and presence of compound respectively.

E. faecalis EFA 103.214 = test: MIC, E. faecalis EFA 103.214; assay type: cell-based; settings: Enterococcus faecalis, EFA103.214, read-out: MIC E. faecalis EFA 103.214
Text: as §1, §2, §3

E. coli AG100 = test: MIC by microdilution, E. coli AG100; assay type: cell-based; settings: 18 h at 37 °C, average of three assays; for MIC: Escherichia coli, AG100, without PMBN; for MIC AG100: with PMBN at 1/5 of its MIC
Text: as §1, §2, §3

[3] = system: E. coli AG100A (AcrAB- derivative); test: MIC by microdilution, E. coli AG100A; assay type: cell-based; settings: for MIC: Escherichia coli, 18 h, read-out: MIC AG100A; for MIC AG100A: with PMBN at 1/5 of its MIC, 18 h at 37 °C, average of three assays
Text: as §1, §2, §3

AtPDF1B [4] = target: T2, AtPDF1B; test: PDF inhibition, formate dehydrogenase-coupled spectrophotometric assay (AtPDF1B); assay type: biochemical; settings: for Ki: PDFI pre-incubated with enzyme 10 min at 37 °C, started by 2 mM Fo-Met-Ala-Ser, read-out: AtPDF1B KI*app; for Ki / IC50: 100 nM AtPDF1B; for AtPDF1B KI/KI*app: enhancement potency (slow tight-binding); for IC50: 2 mM Fo-Met-Ala-Ser, 10 min pre-incubation at 37 °C
Protocol: as §4, with “Enzymatic activity was measured by a spectrophotometric assay where peptide deformylase activity is coupled to that of formate dehydrogenase. The formate” for “The formate”
as §5, §6

SaPDF [5] = target: T1, SaPDF; test: biochemical; settings: for Ki: SaPDF KI, no pre-incubation, assay initiated by addition of enzyme, 40 nM SaPDF, 37 °C; for SaPDF KI/KI*app: enhancement potency (slow tight-binding)
Protocol: as §4, with “Enzymatic activity was measured by a spectrophotometric assay where peptide deformylase activity is coupled to that of formate dehydrogenase. The formate” for “The formate”
as §5, §6

[6] = system: E. aerogenes Ea298, Ea289 derivative tolC-; test: MIC by microdilution, E. aerogenes Ea298; assay type: cell-based, Enterobacter aerogenes; settings: for MIC Ea298: +PMBN at 1/5 of its MIC, average of three assays; for MIC: Klebsiella aerogenes, 18 h, read-out: MIC Ea298
Text: as §1, §2, §3

[7] = system: E. aerogenes Ea294, Ea289 derivative AcrAB-; test: MIC by microdilution, E. aerogenes Ea294; assay type: cell-based, Enterobacter aerogenes; settings: for MIC Ea294: +PMBN at 1/5 of its MIC, average of three assays; for MIC: Klebsiella aerogenes, 18 h, read-out: MIC Ea294
Text: as §1, §2, §3

[8] = system: E. aerogenes Ea289, MDR strain; test: MIC by microdilution, E. aerogenes Ea289; assay type: cell-based, Enterobacter aerogenes; settings: for MIC Ea289: +PMBN at 1/5 of its MIC, average of three assays; for MIC: Klebsiella aerogenes, 18 h, read-out: MIC Ea289
Text: as §1, §2, §3

[9] = EcPDF KI*app, PDFI pre-incubated with enzyme 10 min at 37 °C, started by 2 mM Fo-Met-Ala-Ser
[10] = EcPDF KI, no pre-incubation, assay initiated by addition of enzyme, 37 °C

T3 sequence (P0A6K3 whole entry): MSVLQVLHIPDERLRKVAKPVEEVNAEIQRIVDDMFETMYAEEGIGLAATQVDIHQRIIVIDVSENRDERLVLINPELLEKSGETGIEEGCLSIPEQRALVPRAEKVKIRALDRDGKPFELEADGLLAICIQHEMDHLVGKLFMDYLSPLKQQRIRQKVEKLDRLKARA
T1 sequence (Q8E378 whole entry S2A): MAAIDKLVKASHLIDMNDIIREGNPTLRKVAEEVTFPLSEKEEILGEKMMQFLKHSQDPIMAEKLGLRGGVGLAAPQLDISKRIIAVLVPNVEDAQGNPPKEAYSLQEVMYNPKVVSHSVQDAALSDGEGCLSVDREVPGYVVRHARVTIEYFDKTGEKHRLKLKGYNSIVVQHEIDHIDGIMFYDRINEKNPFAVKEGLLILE

Compound | Ki (SaPDF [1]) | Ki (AtPDF1B [2]) | MIC (S. aureus SA113) | IC50 (EcPDF) | Ki (EcPDF; [9]) | Ki (EcPDF; [10]) | EcPDF KI/KI*app (EcPDF) | MIC (E. faecalis EFA 103.214) | MIC (E. coli AG100) | MIC AG100 (E. coli AG100) | MIC [3] | MIC AG100A [3] | Ki (AtPDF1B [4]) | AtPDF1B KI/KI*app (AtPDF1B [4]) | IC50 (SaPDF [5]) | Ki (SaPDF [5]) | SaPDF KI/KI*app (SaPDF [5]) | MIC Ea298 [6] | MIC [6] | IC50 (AtPDF1B [4]) | also measured
CCCCC(CC(=O)NO)c1nc(Cc2ccc(C(F)(F)F)cc2)no1 (centres unmarked) [AT008] | 81 ± 5 nM | 909 ± 78 nM | > 64 µg/mL | 14 ± 2 nM | 18 ± 3 nM | 80 ± 10 nM | 4 | > 64 µg/mL | > 64 µg/mL | >64 µg/mL | > 64 µg/mL | 16 µg/mL | 666 ± 29 nM | 1 | 25 ± 2 nM | 75 ± 4 nM | 1 |  |  |  | 
CCCCC(CC(=O)NO)c1nc(-c2ccc(C(F)(F)F)cc2)no1 (centres unmarked) [AT011] | 430 ± 39 nM |  | > 64 µg/mL | 215 ± 17 nM | 333 ± 13 nM |  |  | > 64 µg/mL | > 64 µg/mL | 8 µg/mL | 32 µg/mL | 4 µg/mL | 5000 nM |  | 128 ± 32 nM | 400 ± 20 nM | 1 | 16 µg/mL | 128 µg/mL | 6000 nM | MIC Ea294 [7]: 16 µg/mL; MIC [7]: 128 µg/mL; MIC Ea289 [8]: 64 µg/mL; MIC [8]: > 128 µg/mL
O=C(Cc1cn(Cc2ccccc2)c2ccc(Br)cc12)NO [SMP195] | 250 ± 17 nM | 909 ± 118 nM | 4 µg/mL | 17 ± 4 nM | 20 ± 3 nM | 29 ± 4 nM | 1 | 16 µg/mL |  |  |  |  | 833 ± 53 nM | 1 | 110 ± 10 nM | 285 ± 18 nM | 1 |  |  | 400 ± 33 nM | 
CCCCC[C@H](CC(=O)NO)C(=O)N[C@H](C(=O)N1CCC[C@H]1CO)C(C)C [Actinonin, actinonin, reference compound] | 1 ± 0.1 nM | 82 ± 10 nM |  |  |  |  |  |  | 128 µg/mL | 4 µg/mL | 1 µg/mL | 0.25 µg/mL | 3.5 ± 0.3 nM |  | 3 ± 0.9 nM | 64 ± 5 nM |  | 1 µg/mL | 32 µg/mL | 7.5 ± 1.8 nM | MIC Ea294 [7]: 4 µg/mL; MIC [7]: 64 µg/mL; MIC Ea289 [8]: 32 µg/mL; MIC [8]: > 64 µg/mL
CCCCC(CC(=O)NO)c1nc(Cc2ccc(C(=O)OC)cc2)no1 (centres unmarked) [AT018] | 18 ± 1 nM | 1110 ± 100 nM |  | 20 ± 2 nM | 12 ± 1 nM | 49 ± 3 nM | 4 |  | > 64 µg/mL | 64 µg/mL | > 64 µg/mL | 16 µg/mL | 833 ± 10 nM | 1 | 20 ± 1 nM | 38 ± 6 nM | 2 |  |  | 650 ± 20 nM | 

From publication PMC5071857, “A unique peptide deformylase platform to rationally design and challenge novel active compounds” (Scientific Reports, 2016)
